One assay relates to PKG1β. Nature of the assay: Western blot of PKG1β in SW480 cells. Type of assay: cell-based, human. Particulars: various concentrations, 48 hours. As to the method:
(§1) 50 μg protein/lane were analyzed by Western blot analysis using specific anti-PKG1β and anti-GSK3β-phospho-ser9 antibodies.

Assay [1] has as its target T1, GST-cGB-PDE5 fusion protein (Homo sapiens, UniProt O76074).
T1 construct: made in house; host or cells: E. coli BL21 (DE3)
Nature of the assay: cGMP binding assay with GST-cGB-PDE5 fusion protein. The conditions noted are these: 3H-cGMP 2 μM, 22° C., 1 hour. The procedure:
5′-3′, Inc. kits for total RNA followed by oligo (dT) column purification of mRNA are used with HT-29 cells. […] It is then cloned into pGEX-5X-3 glutathione-S-transferase (GST) fusion vector (Pharmacia Biotech) with tac promoter, and EcoRI and XhoI cut sites. The fusion vector is then transfected into E. Coli BL21 (DE3) bacteria (Invitrogen). The transfected BL21 bacteria is grown to log phase, and then IPTG is added as an inducer. The induction is carried at 20° C. for 24 hrs. The bacteria are harvested and lysed. The soluble cell lysate is incubated with GSH conjugated Sepharose 4B (GSH-Sepharose 4B). The GST-cGB-PDE5 fusion protein can bind to the GSH-Sepharose beads, and the other proteins are washed off from beads with excessive cold PBS.
Then, the mixture is transferred to Brandel MB-24 cell harvester with GF/B as the filter membrane followed by 2 washes with 10 mL of cold 5 mM potassium buffer( pH 6.8). The membranes are then cut out and transferred to scintillation vials followed by the addition of 1 mL of H2O and 6 mL of Ready Safe™ liquid scintillation cocktail to each vial. The vials are counted on a Beckman LS 6500 scintillation counter.
The quenching by filter membrane or other debris are also calibrated.

A further assay has as its system β-catenin. The assay can be described thus: Western blot of β-catenin in SW480 cells. Type of assay: cell-based, human. As to the method: (§2) SW480 cells treated with exisulind as described previously are harvested from the microfuge tubes by rinsing once with ice-cold PBS. The cells are lysed by modified RIPA buffer for 15 minutes with agitation. The cell lysate is spun down in a cold room. The supernatants are transferred to fresh microcentrifuge tubes immediately after spinning. BioRad DC Protein Assay (Temecula, Calif.) is performed to determine the protein concentrations in samples. The samples are normalized for protein concentration, as described above.
(§3) 50 μg of each sample is loaded to 10% SDS gel. SDS-PAGE is performed, and the proteins then are transferred to a nitrocellulose membrane. The blotted nitrocellulose membrane are blocked in freshly prepared TBST containing 5% nonfat dry milk for one hour at room temperature with constant agitation.
SW480 cells were treated with exisulind or vehicle (0.1% DMSO) for 48 hours. 50 μg supernatant of each cell lysates were loaded to 10% SDS-gel and blotted to nitrocellulose membrane, and the membrane was probed with rabbit-anti-β-catenin and rabbit anti-PKG antibodies.
This observation was made by culturing SW480 cells with either 200, 400 or600 μM exisulind or vehicle (0.1% DMSO). The cells are harvested 48 hours post treatment and processed for immunoblotting. Immuno-reactive protein can be detected by Western blot. […]
(In general: In western blotting, separated proteins are transferred to a membrane and probed.)

Assay [2] has as its system PKG. Nature of the assay: Western blot of PKG protein in SW480 cells. The format is cell-based, human. Particulars: 48 hours, vs vehicle 0.1% DMSO. As to the method:
as §2, §3
A goat-anti-PKG primary antibody is diluted to the recommended concentration/dilution in fresh TBST/5% nonfat dry milk. The nitrocellulose membrane is placed in the primary antibody solution and incubated one hour at room temperature with agitation. The nitrocellulose membrane is washed three times for ten minutes each with TBST. The nitrocellulose membrane is incubated in a solution containing a secondary POD conjugated rabbit anti-goat antibody for 1 hour at room temperature with agitation. The nitrocellulose membrane is washed three times for ten minutes each time with TBST. […]

In a further assay the test system is GSK3β. The assay can be described thus: Western blot of GSK3β-phospho-ser9 in SW480 cells. The format is cell-based, human. The conditions noted are these: various concentrations, 48 hours, vs 0 concentration. The procedure: as §1
Assay [3] relates to PKG. The assay can be described thus: PKG activity assay on lysates of drug-treated HCT116 colon cancer cells. Type of assay: cell-based, human. Particulars: HCT116 cells (β-catenin mutation, no APC mutation), same procedure as SW480. From the text: HCT116 is known to contain the β-catenin mutation, but is known not to contain the APC mutation.
The same procedure is used to grow the HCT116 cells as is used in the SW480 procedure described above. In this experiment, only exisulind and controls were used.

Assay [4] has as its system PKG. Nature of the assay: PKG activity assay on lysates of drug-treated SW480 colon cancer cells (32P phosphorylation of PDE5/GST substrate). Type of assay: cell-based, human. Particulars: SW480 cells treated 48 hrs; exisulind 200, 400, 600 μM, E4021 0.1, 1, 10 μM; assay with and without added cGMP. As to the method:
A compound that inhibits all these types of PDE is desirable, accordingly. Below, we provide examples of such PDE-inhibiting compounds.
SW 480 is known to contain the APC mutation. About 5 million SW480 cells in RPMI 5% serum are added to each of 8 dishes:
2-10 cm dishes - - - 30 μL DMSO vehicle control (without drug),
3-10 cm dishes - - - 200 μM, 400 μM, 600 μM exisulind in DMSO, and
The dishes are incubated for 48 hrs at 37° C. in 5% CO2 incubator.
The liquid media are aspirated from the dishes (the cells will attach themselves to the dishes). The attached cells are washed in each dish with cold PBS, and 200 μL cell lysis buffer (i.e., 50 mM Tris-HCl, 1% NP-40, 150 mM NaCl, 1 mM EDTA, 1 mM Na3VO4, 1 mM NaF, 500 μM IBMX with proteinase inhibitors) is added to each dish. Immediately after the cell lysis buffer is added, the lysed cells are collected by scraping the cells off each dish. The cell lysate from each dish is transferred to a microfuge tube, and the microfuge tubes are incubated at 4° C. for 15 minutes while gently agitating the microfuge tubes to allow the cells to lyse completely. […]
For each control or drug cell lysate sample to be evaluated, the reaction is started by adding phosphorylation buffer containing 10 μCi ^32P-γ-ATP solution (200 μM ATP, 4.5 mM MgCl; 5 mM KH2PO4; 5 mM K2HPO4;) to each mixture. […]

The target of the next assay is T2, COX I (Ovis aries, UniProt P05979).
T2 construct: The COX was purified from ram seminal vesicles; from tissue; host or cells: ram seminal vesicles
T2 sequence (P05979 25-600): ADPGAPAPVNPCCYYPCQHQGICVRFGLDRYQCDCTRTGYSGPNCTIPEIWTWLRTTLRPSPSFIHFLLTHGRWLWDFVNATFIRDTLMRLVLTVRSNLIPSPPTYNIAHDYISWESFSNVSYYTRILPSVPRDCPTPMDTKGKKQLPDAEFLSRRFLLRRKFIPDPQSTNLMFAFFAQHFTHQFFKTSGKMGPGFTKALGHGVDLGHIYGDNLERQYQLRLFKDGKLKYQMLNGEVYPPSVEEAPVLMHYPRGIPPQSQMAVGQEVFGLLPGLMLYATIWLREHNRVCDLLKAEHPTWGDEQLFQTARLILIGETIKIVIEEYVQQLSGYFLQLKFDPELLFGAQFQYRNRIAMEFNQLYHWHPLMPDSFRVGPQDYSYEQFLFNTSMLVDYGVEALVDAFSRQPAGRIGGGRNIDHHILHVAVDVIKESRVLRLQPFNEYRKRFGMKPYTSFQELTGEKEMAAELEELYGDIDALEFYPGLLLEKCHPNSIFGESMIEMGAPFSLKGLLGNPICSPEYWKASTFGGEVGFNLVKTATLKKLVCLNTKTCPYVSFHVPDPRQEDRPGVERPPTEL
The assay can be described thus: Purified cyclooxygenase (COX) inhibition. Particulars: arachidonic acid 100 μM, 2.0 min, 37° C. The format is biochemical, ram. The procedure:
COX catalyzes the formation of prostaglandins and thromboxane by the oxidative metabolism of arachidonic acid. The compound of Example 1 of this invention, as well as a positive control, (sulindac sulfide) were evaluated to determine whether they inhibited purified cyclooxygenase Type I (see Table 1 below).
The compounds useful in the practice of this invention were evaluated for inhibitory effects on purified COX. The COX was purified from ram seminal vesicles, as described by Boopathy, R. and Balasubramanian, J., 239:371-377, 1988. COX activity was assayed as described by Evans, A. T., et al., “Actions of Cannabis Constituents on Enzymes Of Arachidonate Metabolism Anti-Inflammatory Potential,” Biochem. Pharmacol., 36:2035-2037, 1987. Briefly, purified COX was incubated with arachidonic acid (100 μM) for 2.0 min at 37° C. in the presence or absence of test compounds. The assay was terminated by the addition of TCA, and COX activity was determined by absorbance at 530 nm.

SMILES strings stand for the structures.

T1 sequence (O76074 46-539 limits assumed): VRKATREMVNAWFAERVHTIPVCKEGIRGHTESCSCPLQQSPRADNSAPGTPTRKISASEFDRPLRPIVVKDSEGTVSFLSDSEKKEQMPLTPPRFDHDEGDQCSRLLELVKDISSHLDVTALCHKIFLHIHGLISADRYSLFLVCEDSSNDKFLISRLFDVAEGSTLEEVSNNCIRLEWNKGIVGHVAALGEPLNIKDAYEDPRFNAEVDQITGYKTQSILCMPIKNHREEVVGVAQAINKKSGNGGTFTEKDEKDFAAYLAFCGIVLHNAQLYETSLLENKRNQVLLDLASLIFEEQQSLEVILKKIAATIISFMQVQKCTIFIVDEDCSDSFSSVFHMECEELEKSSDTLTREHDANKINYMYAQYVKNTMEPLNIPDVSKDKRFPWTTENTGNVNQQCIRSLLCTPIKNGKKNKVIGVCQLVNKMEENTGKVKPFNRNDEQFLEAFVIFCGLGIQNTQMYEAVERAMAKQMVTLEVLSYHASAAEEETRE

For `CC1=C(CC(=O)O)c2cc(F)ccc2/C1=C\c1ccc(S(C)(=O)=O)cc1` [exisulind], in the assay on PKG1β, the PKG1 induction entry was “PKG1 induction in a dose-dependent manner”. For the same molecule, in assay [1], the “competition with cGMP for the cGMP binding sites” value is recorded as “None of the PDE5 inhibitors showed any competition with cGMP in binding”. Besides, the “reduction of β-catenin expression compared to control” value with β-catenin (SW480 cells, 200, 400 or 600 μM, harvested 48 hours post treatment) amounted to 50%. In addition, in the assay with β-catenin (SW480 cells, 48 hours, vs vehicle 0.1% DMSO), the “β-catenin level by Western blot” value is “drop of β-catenin”. The “PKG protein level by Western blot” value with PKG [2] was “increase of PKG”. Moreover, in the assay with GSK3β, the “GSK3β inactivation by Ser9 phosphorylation” value is on record as “inactivated in vivo by phosphorylation of its Ser9”. Besides, the “PKG activation relative to controls” value with PKG [3] is listed as “PKG activation occurred”. The “PKG activity relative to control” value in the assay with PKG [4] was “causes PKG activity to increase in a dose-dependent manner”.
For the molecule `CC1=C(CC(=O)NCc2ccccc2)c2cc(F)ccc2/C1=C\c1ccncc1` [Example 1, (Z)-5-Fluoro-2-Methyl-(4-Pyridinylidene)-3-(N-Benzyl)-Indenylacetamide], on COX I, the inhibition – broadly, how much of the control response was suppressed – at 100 µM was below 25%.

These data come from patent publication US20030194750A1, “Methods for treatment of diseases where GSK 3-beta is desired, and methods to identify compounds usefule for that” (priority 2002, published 2003).
